From US20150374658A1, “COMPOSITION COMPRISING LICORICIDINE” (ANALYTICON DISCOVERY GMBH, priority 2012, published 2015) come the findings set out here.

Values after ≈ are worked out from the molar mass of the structure shown.

One may read the IC50 as the concentration at which inhibition is half-maximal.

Series [1] has as its system Corynebacterium xerosis DSM 20743 (ATCC 373). The series is described as follows: Classic assay, biofilm formation (crystal violet, CV580). As to conditions: read-out: IC50, biofilm growth mode. It is filed as cell-based. As to the method: (§1) Corynebaterium xerosis is usually characterized as a rod-like gram positive bacterium. Under laboratory conditions (96 well plates) it takes ˜24 hours until Corynebaterium xerosis reaches stationary growth phase. Within this period planktonic growth can be quantified by spectroscopic means and a biofilm can be detected and quantified by standard crystal violet incorporation (c.f. O'Toole & Kolter, 1998, Mol. Microbiol. 28(3), 449-461). Planktonic growth denotes growth of non-adherent cells in the bulk liquid whereas biofilm denotes growth of cells adherent to solid surfaces.
(§2) Routine susceptibility testing of C. xerosis in high throughput format was done by simultaneous addition of test compounds and inoculum (“classic assay”). Growth of untreated (i.e. no extracts or test compounds added, control) planktonic cells ceased 7 hours after inoculation, and decreased by 13% at 24 hours. Biofilm development reached maximum 10 hours upon inoculation and kept constant for the rest of the test period (30 hours).
(§3) Formation of planktonic and biofilm cells was determined 18-24 hours after inoculation, thus at a time when some planktonic cells lysed. […]
(§4) Effects of test compounds were evaluated by comparison of turbidity (optical density, OD580) and crystal violet staining (biofilm; CV580) of treated and untreated samples (control; 100%). […]

For series [2] the test system is unchanged. The series can be described thus: Classic assay, planktonic growth (OD580). Type of series: cell-based. As to conditions: read-out: IC50, planktonic growth. The procedure:
as §1, §2, §3, §4

Series [3] is described as follows: Stability assessment of licoricidine using different stabilizers (HPLC peak area, storage at 40° C.). It is filed as physicochemical. Conditions: HPLC UV 225 nm. As to the method: Five times 5 mg ethanolic extract (0.1%) were dissolved in 1.5 ml ethanol and 3.5 ml buffer pH 7. • To the first batch 20 mg citric acid (0.4%) were added as a stabilizer and the resulting batch was stored at 40° C. • To the second batch 50 mg citric acid (1.0%) were added as a stabilizer and the resulting batch was stored at 40° C. • To the third batch 20 mg ascorbic acid (0.4%) were added as a stabilizer and the resulting batch was stored at 40° C. • To the fourth batch 50 mg ascorbic acid (1.0%) were added as a stabilizer and the resulting batch was stored at 40° C. • The fifth batch was stored as a reference at −18° C.
30 mg lipophilic extract were dissolved in 30 ml safflower oil at 80° C.
The obtained solution was split into three batches: • To the first batch 10 mg/ml ascorbic acid palmitate were added as a stabilizer and the resulting batch was stored at 40° C. • To the second batch 10 mg/ml BHA (Butylhydroxyanisol) were added as a stabilizer and the resulting batch was stored at 40° C. • The third batch was stored as a reference at −18° C.
Dissolve 120 mg lipophilic extract in 30 ml safflower oil at 80° C.
Split in tree (3) batches: • Add to the first batch 10 mg/ml ascorbic acid palmitate as a stabilizer and store at 40° C. • Add to the second batch 10 mg/ml BHA (Butylhydroxyanisol) as a stabilizer and store at 40° C. • Freeze the third batch as a reference at −18° C.
• Add to 10 ml maceration oil 100 mg ascorbic acid palmitate as a stabilizer and store at 40° C. • Add to 10 ml maceration oil 100 mg BHA (Butylhydroxyanisol) as a stabilizer and store at 40° C. • Freeze 10 ml maceration oil as a reference at −18° C.
0.5 ml of the respective oil prepared according to any one of examples 5.1 to 5.4 was extracted with 3 ml methanole/water (9:1), centrifugated and the supernatant was used for the analysis.
• Column: Kromasil C18, 125×4 mm with pre-column • Detection: UV (225 nm) • Mobile Phase: A: water with 5 mM ammoniumformiate and 0.1% formic acid; • B: acetonitrile/methanol=1:1, 5 mM ammoniumformiate and 0.1% formic acid • Gradient: from 60% B to 80% B in 30 min • Flow: 0.8 ml/min • The retention time of the reference peak (licoricidine) is 16.9 (±0.2) min.

As for `Oc1cc(Cl)ccc1Oc1ccc(Cl)cc1Cl` [Triclosan, 5-chloro-2-(2,4-dichlorophenoxy)-phenol, reference compound], the figures for the IC50 in series [1] and in series [2] were 0.6 µg/mL (≈ 2.07 µM) and 1.7 µg/mL (≈ 5.87 µM), respectively.
`COc1c(CC=C(C)C)c(O)cc2c1C[C@H](c1ccc(O)c(CC=C(C)C)c1O)CO2` [licoricidine]: the “decrease of the peak area of licoricidine” value in series [3] (aqueous solution (buffer pH 7 in addition of 30% ethanol) with 0.1% ethanolic extract and 1% citric acid, eight (8) weeks storage at 40° C.) is given as “lower than 20%”; in series [3] (maceration oil with addition of 1% BHA, twelve (12) weeks storage at 40° C.), “lower than 20%”; in series [3] (safflower oil with 0.1% lipophilic extract, 1% BHA, twelve (12) weeks storage at 40° C.), “lower than 20%”; in series [3] (safflower oil with 0.4% lipophilic extract, 1% BHA, twelve (12) weeks storage at 40° C.), “lower than 20%”. Further, the IC50 in series [1] (serial dilutions, classic assay) amounted to 4.3 µg/mL (≈ 10.1 µM).
